In US9517215B2, “Dermal matrix and production method thereof having synergistic effects comprising microparticles which provides tissue repair” (T.C. EGE UNIVERSITESI, priority 2013, dated 2016):

System: human dermal fibroblast cells (Invitrogen C-013-5C)
Assay: Cell vitality of human dermal fibroblast cells after 24 h incubation
Type: cell-based
Experimental: The human dermal fibroblast cells, (Invitrogen C-013-5C) were cultured in humid conditions comprising 37±0.5° C. and 5% CO2 according to the instructions of the producer. […] Oxidative stress parameters such as total glutation, malondialdehyde, and superoxide dismutase and glutation peroxidase have been examined inside the cells that have been analyzed.

`Oc1ccc(C=Cc2cc(O)cc(O)c2)cc1` [Resveratrol solution, resveratrol] was tested, and the “cytotoxic potential (cell vitality)” value was “not to have cytotoxic potential” and the cell proliferation effect (concentrations corresponding to 50 μM resveratrol content) was “cell proliferation increasing effects”.
